Assay results from patent EP2987533B1, “7-substituted piperazin-1-yl fluoroquinolone compounds, their use in the treatment of cancer, pharmaceutical compositions and a method for preparation” (priority 2014, dated 2016).

How the values were obtained:
Experiment in all cases: NCI one-dose SRB growth assay
Format in all cases: cell-based
A498 = conditions: Homo sapiens; A498 (Renal Cancer), 10^-5 M, 48 h; read-out: % Growth Inhibition (GI %)
In short: (§1)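 Single dose 10^-5M, 48 h exposure. SRB protein staining, absorbance read. Output: % growth vs untreated controls.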

A549/ATCC = conditions: Homo sapiens; A549/ATCC (Non-Small Cell Lung Cancer), 10^-5 M, 48 h; read-out: % Growth Inhibition (GI %)
In short: as §1

ACHN = conditions: Homo sapiens; ACHN (Renal Cancer), 10^-5 M, 48 h; read-out: % Growth Inhibition (GI %)
In short: as §1

BT-549 = conditions: Homo sapiens; BT-549 (Breast Cancer), 10^-5 M, 48 h; read-out: % Growth Inhibition (GI %)
In short: as §1

COLO 205 = conditions: Homo sapiens; COLO 205 (Colon Cancer), 10^-5 M, 48 h; read-out: % Growth Inhibition (GI %)
In short: as §1

HCT-116 = conditions: Homo sapiens; HCT-116 (Colon Cancer), 10^-5 M, 48 h; read-out: % Growth Inhibition (GI %)
In short: as §1

HCT-15 = conditions: Homo sapiens; HCT-15 (Colon Cancer), 10^-5 M, 48 h; read-out: % Growth Inhibition (GI %)
In short: as §1

HL-60(TB) = conditions: Homo sapiens; HL-60(TB) (Leukemia), 10^-5 M, 48 h; read-out: % Growth Inhibition (GI %)
K-562 = conditions: Homo sapiens, K562; K-562 (Leukemia), 10^-5 M, 48 h; read-out: % Growth Inhibition (GI %)
In short: as §1

KM12 = conditions: Homo sapiens; KM12 (Colon Cancer), 10^-5 M, 48 h; read-out: % Growth Inhibition (GI %)
In short: as §1

LOX IMVI = conditions: Homo sapiens; LOX IMVI (Melanoma), 10^-5 M, 48 h; read-out: % Growth Inhibition (GI %)
In short: as §1

M14 = conditions: Homo sapiens; M14 (Melanoma), 10^-5 M, 48 h; read-out: % Growth Inhibition (GI %)
In short: as §1

MALME-3M = conditions: Homo sapiens; MALME-3M (Melanoma), 10^-5 M, 48 h; read-out: % Growth Inhibition (GI %)
In short: as §1

NCI-H226 = conditions: Homo sapiens; NCI-H226 (Non-Small Cell Lung Cancer), 10^-5 M, 48 h; read-out: % Growth Inhibition (GI %)
In short: as §1

NCI-H460 = conditions: Homo sapiens; NCI-H460 (Non-Small Cell Lung Cancer), 10^-5 M, 48 h; read-out: % Growth Inhibition (GI %)
NCI-H522 = conditions: Homo sapiens; NCI-H522 (Non-Small Cell Lung Cancer), 10^-5 M, 48 h; read-out: % Growth Inhibition (GI %)
In short: as §1

SF-295 = conditions: Homo sapiens; SF-295 (CNS Cancer), 10^-5 M, 48 h; read-out: % Growth Inhibition (GI %)
In short: as §1

SK-OV-3 = conditions: Homo sapiens; SK-OV-3 (Ovarian Cancer), 10^-5 M, 48 h; read-out: % Growth Inhibition (GI %)
In short: as §1

SNB-19 = conditions: Homo sapiens; SNB-19 (CNS Cancer), 10^-5 M, 48 h; read-out: % Growth Inhibition (GI %)
In short: as §1

SNB-75 = conditions: Homo sapiens; SNB-75 (CNS Cancer), 10^-5 M, 48 h; read-out: % Growth Inhibition (GI %)
In short: as §1

SW-620 = conditions: Homo sapiens; SW-620 (Colon Cancer), 10^-5 M, 48 h; read-out: % Growth Inhibition (GI %)
U251 = conditions: Homo sapiens, U-251; U251 (CNS Cancer), 10^-5 M, 48 h; read-out: % Growth Inhibition (GI %)
In short: as §1

UACC-257 = conditions: Homo sapiens; UACC-257 (Melanoma), 10^-5 M, 48 h; read-out: % Growth Inhibition (GI %)
In short: as §1

UACC-62 = conditions: Homo sapiens; UACC-62 (Melanoma), 10^-5 M, 48 h; read-out: % Growth Inhibition (GI %)
In short: as §1

MDA-MB-468 = conditions: Homo sapiens; MDA-MB-468 (Breast Cancer), 10^-5 M, 48 h; read-out: % Growth Inhibition (GI %)
In short: as §1

SR = conditions: Homo sapiens; SR (Leukemia), 10^-5 M, 48 h; read-out: % Growth Inhibition (GI %)
In short: as §1

## CCn1cc(C(=O)O)c(=O)c2cc(F)c(N3CCN(S(=O)(=O)c4ccc(Cl)cc4)CC3)cc21 [Compound 1a]
A498
  inhibition at 10 µM: > 100%
A549/ATCC
  inhibition at 10 µM: 84.4%
ACHN
  inhibition at 10 µM: 71.3%
BT-549
  inhibition at 10 µM: 87.4%
COLO 205
  inhibition at 10 µM: 87.9%
HCT-116
  inhibition at 10 µM: 95.2%
HCT-15
  inhibition at 10 µM: 84.3%
HL-60(TB)
  inhibition at 10 µM: 91%
K-562
  inhibition at 10 µM: 78.6%
KM12
  inhibition at 10 µM: 95.7%
LOX IMVI
  inhibition at 10 µM: 80.1%
M14
  inhibition at 10 µM: 81.1%
MALME-3M
  inhibition at 10 µM: 76.2%
NCI-H226
  inhibition at 10 µM: 39.9%
NCI-H460
  inhibition at 10 µM: 94.1%
NCI-H522
  inhibition at 10 µM: 91.6%
SF-295
  inhibition at 10 µM: 96.1%
SK-OV-3
  inhibition at 10 µM: 59.2%
SNB-19
  inhibition at 10 µM: 79.4%
SNB-75
  inhibition at 10 µM: 58.2%
SW-620
  inhibition at 10 µM: 76%
U251
  inhibition at 10 µM: 88%
UACC-257
  inhibition at 10 µM: 71%
UACC-62
  inhibition at 10 µM: 78.5%

## CCn1cc(C(=O)O)c(=O)c2cc(F)c(N3CCN(S(=O)(=O)c4ccc(Cl)cc4Cl)CC3)cc21 [Compound 2a]
A498
  inhibition at 10 µM: > 100%
A549/ATCC
  inhibition at 10 µM: 98%
ACHN
  inhibition at 10 µM: > 100%
BT-549
  inhibition at 10 µM: > 100%
COLO 205
  inhibition at 10 µM: > 100%
HCT-116
  inhibition at 10 µM: 93.6%
HCT-15
  inhibition at 10 µM: 92.4%
HL-60(TB)
  inhibition at 10 µM: > 100%
K-562
  inhibition at 10 µM: 89.1%
KM12
  inhibition at 10 µM: 90.6%
LOX IMVI
  inhibition at 10 µM: > 100%
M14
  inhibition at 10 µM: 84.1%
MALME-3M
  inhibition at 10 µM: > 100%
MDA-MB-468
  inhibition at 10 µM: > 100%
NCI-H226
  inhibition at 10 µM: 86.9%
NCI-H460
  inhibition at 10 µM: 89.1%
NCI-H522
  inhibition at 10 µM: > 100%
SF-295
  inhibition at 10 µM: > 100%
SK-OV-3
  inhibition at 10 µM: 98.3%
SNB-19
  inhibition at 10 µM: 73.8%
SNB-75
  inhibition at 10 µM: 25.2%
SR
  inhibition at 10 µM: > 100%
SW-620
  inhibition at 10 µM: 83.7%
U251
  inhibition at 10 µM: 87.9%
UACC-257
  inhibition at 10 µM: > 100%
UACC-62
  inhibition at 10 µM: 83.8%

## O=C(O)c1cn(C2CC2)c2cc(N3CCN(S(=O)(=O)c4ccc(Cl)cc4Cl)CC3)c(F)cc2c1=O [Compound 2b]
A498
  inhibition at 10 µM: 23.6%
A549/ATCC
  inhibition at 10 µM: < 10%
ACHN
  inhibition at 10 µM: 14.9%
BT-549
  inhibition at 10 µM: 13.7%
COLO 205
  inhibition at 10 µM: 11.9%
HCT-116
  inhibition at 10 µM: 13.4%
HCT-15
  inhibition at 10 µM: 16.2%
HL-60(TB)
  inhibition at 10 µM: 13.1%
K-562
  inhibition at 10 µM: < 10%
KM12
  inhibition at 10 µM: < 10%
LOX IMVI
  inhibition at 10 µM: 38.6%
M14
  inhibition at 10 µM: < 10%
MALME-3M
  inhibition at 10 µM: < 10%
MDA-MB-468
  inhibition at 10 µM: 65.1%
NCI-H226
  inhibition at 10 µM: 39.7%
NCI-H460
  inhibition at 10 µM: < 10%
NCI-H522
  inhibition at 10 µM: < 10%
SF-295
  inhibition at 10 µM: < 10%
SK-OV-3
  inhibition at 10 µM: < 10%
SNB-19
  inhibition at 10 µM: < 10%
SNB-75
  inhibition at 10 µM: 70.2%
SR
  inhibition at 10 µM: 17.7%
SW-620
  inhibition at 10 µM: < 10%
U251
  inhibition at 10 µM: < 10%
UACC-257
  inhibition at 10 µM: < 10%
UACC-62
  inhibition at 10 µM: 14.6%
